Earlier results, collected in patent US20110305738A1, “Oxygenating Oral Compositions” (priority 2010, published 2011).

How the values were obtained:
[1] = not given; remark: listed apart in the source

water solubility (at 20 °C): 800 grams per liter
saturated solution concentration of carbamide peroxide (water at 20° C.): 44.4%
pH upon dissolution ([1]; 1% solution): approximately 4.05
pH when solubilized in water ([1]; saturated solution): approximately 3.40
SMILES: NC(N)=O.OO [Carbamide peroxide]
